In patent US9944678B2, “Immunomodulators” (BRISTOL-MYERS SQUIBB COMPANY, priority 2014, dated 2018) one finds IC50 data, which are given here for twelve compounds.

The term IC50 denotes the concentration at which inhibition is half-maximal. Read a low IC50 as higher potency.

The assay concerns the target T1, PD-1-Ig binding to PD-L1-TVMV-His (PD-L1-His) (Homo sapiens, UniProt Q9NZQ7).
T1 construct: hPDL1(19-239)-TVMV-His; TVMV protease cleavage site (C); made in house; host or cells: HEK293T cells
Description: PD-1/PD-L1 Homogenous Time-Resolved Fluorescence (HTRF) binding assay. Particulars: PD-1-Ig/PD-L1-His binding. The source says: The ability of the macrocyclic peptides of the present disclosure to bind to PD-L1 was investigated using a PD-1/PD-L1 Homogenous Time-Resolved Fluorescence (HTRF) binding assay.
Homogenous Time-Resolved Fluorescence (HTRF) Assays of Binding of Soluble PD-1 to Soluble PD-L1. Soluble PD-1 and soluble PD-L1 refers to proteins with carboxyl-end truncations that remove the transmembrane-spanning regions and are fused to heterologous sequences, specifically the Fc portion of the human immunoglobuling G sequence (Ig) or the hexahistidine epitope tag (His). All binding studies were performed in an HTRF assay buffer consisting of dPBS supplemented with 0.1% (w/v) bovine serum albumin and 0.05% (v/v) Tween-20. For the PD-1-Ig/PD-L1-His binding assay, inhibitors were pre-incubated with PD-L1-His (10 nM final) for 15 m in 4 μl of assay buffer, followed by addition of PD-1-Ig (20 nM final) in 1 μl of assay buffer and further incubation for 15 m. PD-L1 fusion proteins from either human, cynomologous macaques, mouse, or other species were used. HTRF detection was achieved using europium crypate-labeled anti-Ig monoclonal antibody (1 nM final) and allophycocyanin (APC) labeled anti-His monoclonal antibody (20 nM final). Antibodies were diluted in HTRF detection buffer and 5 μl was dispensed on top of binding reaction. The reaction was allowed to equilibrate for 30 minutes and signal (665 nm/620 nm ratio) was obtained using an EnVision fluorometer. Additional binding assays were established between PD-1-Ig/PD-L2-His (20 and 5 nM, respectively), CD80-His/PD-L1-Ig (100 and 10 nM, respectively) and CD80-His/CTLA4-Ig (10 and 5 nM, respectively). Binding/competition studies between biotinylated Compound No. 71 and human PD-L1-His were performed as follows. Macrocyclic peptide inhibitors were pre-incubated with PD-L1-His (10 nM final) for 60 minutes in 4 μl of assay buffer followed by addition of biotinylated Compound No. 71 (0.5 nM final) in 1 μl of assay buffer. Binding was allowed to equilibrate for 30 minutes followed by addition of europium crypated labeled Streptavidin (2.5 pM final) and APC-labeled anti-His (20 nM final) in 5 μl of HTRF buffer. The reaction was allowed to equilibrate for 30 m and signal (665 nm/620 nm ratio) was obtained using an EnVision fluorometer.
Recombinant Proteins. Carboxyl-truncated human PD-1 (amino acids 25-167) with a C-terminal human Ig epitope tag [hPD-1 (25-167)-3S-IG] and human PD-L1 (amino acids 18-239) with a C-terminal His epitope tag [hPD-L1(19-239)-tobacco vein mottling virus protease cleavage site (TVMV)-His] were expressed in HEK293T cells and purified sequentially by recombinant Protein A affinity chromatography and size exclusion chromatography. Human PD-L2-His (Sino Biologicals), CD80-His (Sino Biologicals), CTLA4-Ig (RnD Systems) were all obtained through commercial sources.
Ranges are as follows: A=0.10-10 μM; B=0.01-0.099 μM; C=0.004-0.0099 μM.

Starred links: 1 amine or outer side, 2 acyl side, 3 side chain; linkers in the order of their positions; H or OH if unused. Positions of bridges follow the written chain, without caps; N, C: chain ends. Non-standard residues stand in square brackets, D forms with d. Residues, ends and D or L forms follow the SMILES beside them. ξ: configuration not given here. X1 = C=C[C@H]1C[C@@]1(N[*:1])C(=O)[*:2]; X2 = CC[C@H]1C[C@@]1(N[*:1])C(=O)[*:2]; Bta = N[C@@H](Cc1csc2ccccc12)C(=O)O; Hyp = O=C(O)[C@@H]1C[C@@H](O)CN1; Aic = NC1(C(=O)O)Cc2ccccc2C1; NMeNle = CCCC[C@H](NC)C(=O)O; NMeA = CN[C@@H](C)C(=O)O; Ac5c = NC1(C(=O)O)CCCC1; Dab = NCC[C@H](N)C(=O)O; Dap = NC[C@H](N)C(=O)O; Ac3c = NC1(C(=O)O)CC1; Aib = CC(C)(N)C(=O)O; ξC = NC(CS)C(=O)O

T1 sequence (Q9NZQ7 with tags, fused parts or gaps): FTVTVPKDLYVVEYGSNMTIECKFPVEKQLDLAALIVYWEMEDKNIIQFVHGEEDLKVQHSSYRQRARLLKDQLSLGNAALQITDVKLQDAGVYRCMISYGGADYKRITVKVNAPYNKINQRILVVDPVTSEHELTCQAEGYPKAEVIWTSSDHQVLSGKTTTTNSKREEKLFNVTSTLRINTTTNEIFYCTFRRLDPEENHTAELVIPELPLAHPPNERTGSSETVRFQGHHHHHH

The compound `C=C[C@H]1C[C@]12NC(=O)[C@H](CC(N)=O)NC(=O)[C@H](C)N(C)C(=O)[C@H](Cc1ccc(O)cc1)NC(=O)CSCC(C(=O)NCC(N)=O)NC(=O)[C@H](CCCNC(=N)N)NC(=O)[C@H](CCCC)N(C)C(=O)[C@H](CCCC)N(C)C(=O)[C@H](Cc1csc3ccccc13)NC(=O)[C@H](CO)NC(=O)[C@H](Cc1c[nH]c3ccccc13)NC(=O)[C@@H]1C[C@@H](O)CN1C(=O)[C@H](CC(C)C)NC(=O)[C@H](Cc1cnc[nH]1)NC2=O` (stereo partly drawn) [Example 10002] ({CH2CO}-Y[NMeA]N[X1]HL[Hyp]WS[Bta][NMeNle][NMeNle]R[ξC]G-NH2; thioether N-14) registered an IC50 (numeric values) of 200 nM.

Compound `CCCC[C@H]1C(=O)N(C)[C@@H](CCCC)C(=O)N[C@@H](CCCNC(=N)N)C(=O)N[C@H](C(=O)NCC(N)=O)CSCC(=O)N[C@@H](Cc2ccccc2)C(=O)N(C)[C@@H](C)C(=O)N[C@@H](CC(N)=O)C(=O)N2CCC[C@H]2C(=O)N[C@@H](Cc2cnc[nH]2)C(=O)N[C@@H](CC(C)C)C(=O)NC2(CCCC2)C(=O)N[C@@H](Cc2c[nH]c3ccccc23)C(=O)N[C@@H](CO)C(=O)N[C@@H](Cc2c[nH]c3ccccc23)C(=O)N1C` [Example 1001] showed an IC50 (values given as range classes) of 100 to 10000 nM. In turn, `CCCC[C@H]1C(=O)N(C)[C@@H](CCCC)C(=O)N[C@@H](CCCNC(=N)N)C(=O)NC(C(=O)NCC(N)=O)CSCC(=O)N[C@@H](Cc2ccc(O)cc2)C(=O)N(C)[C@@H](C)C(=O)N[C@@H](CC(N)=O)C(=O)N2C[C@H](O)C[C@H]2C(=O)N[C@@H](Cc2cnc[nH]2)C(=O)N[C@@H](CC(C)C)C(=O)NC2(C[C@@H]2C)C(=O)N[C@@H](Cc2c[nH]c3ccccc23)C(=O)N[C@@H](CO)C(=O)N[C@@H](Cc2c[nH]c3ccccc23)C(=O)N1C` (stereo partly drawn) [Example 10007] returned a concentration for half-maximal inhibition (IC50) (values given as range classes) of 100 to 10000 nM.

In turn, `CCCC[C@H]1C(=O)N(C)[C@@H](CCCC)C(=O)NC2(Cc3ccccc3C2)C(=O)N[C@H](C(=O)NCC(N)=O)CSCC(=O)N[C@@H](Cc2ccc(O)cc2)C(=O)N(C)[C@@H](C)C(=O)N[C@@H](CC(N)=O)C(=O)N2CCC[C@H]2C(=O)N[C@@H](CN)C(=O)N[C@@H](CC(C)C)C(=O)N2C[C@H](O)C[C@H]2C(=O)N[C@@H](Cc2c[nH]c3ccccc23)C(=O)N[C@@H](CCN)C(=O)N[C@@H](Cc2c[nH]c3ccccc23)C(=O)N1C` [Example 9016] ({CH2CO}-Y[NMeA]NP[Dap]L[Hyp]W[Dab]W[NMeNle][NMeNle][Aic]CG-NH2; thioether N-14) displayed an IC50 (values given as range classes) of 10 to 99 nM.

The compound `CCCC[C@H]1C(=O)N(C)[C@@H](CCCC)C(=O)N[C@@H](CC(C)C)C(=O)N[C@H](C(=O)NCC(N)=O)CSCC(=O)N[C@@H](Cc2ccc(O)cc2)C(=O)N(C)[C@@H](C)C(=O)N[C@@H](CC(N)=O)C(=O)N2CCC[C@H]2C(=O)N[C@@H](CN)C(=O)N[C@@H](CC(C)C)C(=O)N2C[C@H](O)C[C@H]2C(=O)N[C@@H](Cc2c[nH]c3ccccc23)C(=O)NC(C)(C)C(=O)N[C@@H](Cc2c[nH]c3ccccc23)C(=O)N1C` [Example 9007] ({CH2CO}-Y[NMeA]NP[Dap]L[Hyp]W[Aib]W[NMeNle][NMeNle]LCG-NH2; thioether N-14) showed an IC50 (values given as range classes) of 100 to 10000 nM. On the same count and under the same terms, for `CCCC[C@H]1C(=O)N(C)[C@@H](CCCC)C(=O)N[C@@H](CC(C)C)C(=O)N[C@H](C(=O)NCC(N)=O)CSCC(=O)N[C@@H](Cc2ccc(O)cc2)C(=O)N(C)[C@@H](C)C(=O)N[C@@H](CC(N)=O)C(=O)N2CCC[C@H]2C(=O)NC2(CC2)C(=O)N[C@@H](CC(C)C)C(=O)N2C[C@H](O)C[C@H]2C(=O)N[C@@H](Cc2c[nH]c3ccccc23)C(=O)N[C@@H](CCN)C(=O)N[C@@H](Cc2c[nH]c3ccccc23)C(=O)N1C` [Example 9012] ({CH2CO}-Y[NMeA]NP[Ac3c]L[Hyp]W[Dab]W[NMeNle][NMeNle]LCG-NH2; thioether N-14) the value was 10 to 99 nM. Take `CCCC[C@H]1C(=O)N(C)[C@@H](CCCC)C(=O)N[C@@H](CC(C)C)C(=O)N[C@H](C(=O)NCC(N)=O)CSCC(=O)N[C@@H](Cc2ccc(O)cc2)C(=O)N(C)[C@@H](C)C(=O)N[C@@H](CC(N)=O)C(=O)N2CCC[C@H]2C(=O)NC2(Cc3ccccc3C2)C(=O)N[C@@H](CC(C)C)C(=O)N2C[C@H](O)C[C@H]2C(=O)N[C@@H](Cc2c[nH]c3ccccc23)C(=O)N[C@@H](CCN)C(=O)N[C@@H](Cc2c[nH]c3ccccc23)C(=O)N1C` [Example 9018] ({CH2CO}-Y[NMeA]NP[Aic]L[Hyp]W[Dab]W[NMeNle][NMeNle]LCG-NH2; thioether N-14): for the setting “values given as range classes”, the IC50 lay within 10 to 99 nM. The compound `CCCC[C@H]1C(=O)N(C)[C@@H](CCCC)C(=O)NC2(CC2)C(=O)N[C@H](C(=O)NCC(N)=O)CSCC(=O)N[C@@H](Cc2ccc(O)cc2)C(=O)N(C)[C@@H](C)C(=O)N[C@@H](CC(N)=O)C(=O)N2CCC[C@H]2C(=O)N[C@@H](CN)C(=O)N[C@@H](CC(C)C)C(=O)N2C[C@H](O)C[C@H]2C(=O)N[C@@H](Cc2c[nH]c3ccccc23)C(=O)N[C@@H](CCN)C(=O)N[C@@H](Cc2c[nH]c3ccccc23)C(=O)N1C` [Example 9006] ({CH2CO}-Y[NMeA]NP[Dap]L[Hyp]W[Dab]W[NMeNle][NMeNle][Ac3c]CG-NH2; thioether N-14) showed an IC50 (numeric values) of 40 nM. In the case of `CCCC[C@H]1C(=O)N(C)[C@@H](CCCC)C(=O)NC2(CCCC2)C(=O)N[C@H](C(=O)NCC(N)=O)CSCC(=O)N[C@@H](Cc2ccc(O)cc2)C(=O)N(C)[C@@H](C)C(=O)N[C@@H](CC(N)=O)C(=O)N2CCC[C@H]2C(=O)N[C@@H](CN)C(=O)N[C@@H](CC(C)C)C(=O)N2C[C@H](O)C[C@H]2C(=O)N[C@@H](Cc2c[nH]c3ccccc23)C(=O)N[C@@H](CCN)C(=O)N[C@@H](Cc2c[nH]c3ccccc23)C(=O)N1C` [Example 9015] ({CH2CO}-Y[NMeA]NP[Dap]L[Hyp]W[Dab]W[NMeNle][NMeNle][Ac5c]CG-NH2; thioether N-14), where the note is “values given as range classes”, the IC50 was 10 to 99 nM. Regarding `CCCC[C@H]1C(=O)N(C)[C@@H](CCCC)C(=O)N[C@@H](CCCNC(=N)N)C(=O)NC(C(=O)NCC(N)=O)CSCC(=O)N[C@@H](Cc2ccc(O)cc2)C(=O)N(C)[C@@H](C)C(=O)N[C@@H](CC(N)=O)C(=O)N[C@]2(C[C@@H]2CC)C(=O)N[C@@H](Cc2cnc[nH]2)C(=O)N[C@@H](CC(C)C)C(=O)N2CCC[C@H]2C(=O)N[C@@H](Cc2c[nH]c3ccccc23)C(=O)N[C@@H](CO)C(=O)N[C@@H](Cc2c[nH]c3ccccc23)C(=O)N1C` (stereo partly drawn) [Example 10010] ({CH2CO}-Y[NMeA]N[X2]HLPWSW[NMeNle][NMeNle]R[ξC]G-NH2; thioether N-14), the IC50 (values given as range classes) fell in the range of 100 to 10000 nM. Take `CCCC[C@H]1C(=O)N(C)[C@@H](CCCC)C(=O)N[C@@H](CCCNC(=N)N)C(=O)N[C@H](C(=O)NCC(N)=O)CSCC(=O)N[C@@H](Cc2ccccc2)C(=O)N(C)[C@@H](C)C(=O)N[C@@H](CC(N)=O)C(=O)N2CCC[C@H]2C(=O)N[C@@H](Cc2cnc[nH]2)C(=O)N[C@@H](CC(C)C)C(=O)NC(C)(C)C(=O)N[C@@H](Cc2c[nH]c3ccccc23)C(=O)N[C@@H](CO)C(=O)N[C@@H](Cc2c[nH]c3ccccc23)C(=O)N1C` [Example 1002]: for the setting “values given as range classes”, the IC50 fell in the range of 100 to 10000 nM. On the same count and under the same terms, next, `CCCC[C@H]1C(=O)N(C)[C@@H](CCCC)C(=O)N[C@@H](CCCNC(=N)N)C(=O)NC(C(=O)NCC(N)=O)CSCC(=O)N[C@@H](Cc2ccc(O)cc2)C(=O)N(C)[C@@H](C)C(=O)N[C@@H](CC(N)=O)C(=O)N[C@]2(C[C@@H]2CC)C(=O)N[C@@H](Cc2cnc[nH]2)C(=O)N[C@@H](CC(C)C)C(=O)N2C[C@H](O)C[C@H]2C(=O)N[C@@H](Cc2c[nH]c3ccccc23)C(=O)N[C@@H](CO)C(=O)N[C@@H](Cc2csc3ccccc23)C(=O)N1C` (stereo partly drawn) [Example 10008] ({CH2CO}-Y[NMeA]N[X2]HL[Hyp]WS[Bta][NMeNle][NMeNle]R[ξC]G-NH2; thioether N-14): 10 to 99 nM.
